The text below walks through data of publication PMC6010013, “Synthesis, physiochemical property and antimicrobial activity of novel quaternary ammonium salts” (Journal of Enzyme Inhibition and Medicinal Chemistry, 2017).

Where a name gives a salt, the structure may show the parent alone.

As usually defined, the melting point is the temperature of the solid-liquid transition.

System in the first data set: not given
Conditions: not given
In the case of `Cc1nnc(SCCCCCCCCCCCC[N+](C)(CCO)CCO)s1` (as salt: bromide) [Compound 16d], the melting point lay within 95 to 96 °C.

In the case of `C[N+](CCO)(CCO)CCCCCCSc1nc2ccccc2s1` (as salt: bromide) [Compound 13a], the melting point is 142 to 143 °C. Same read-out and setting: the figure for `C[N+](CCO)(CCO)CCCCCCCCCCSc1nc2ccccc2o1` (as salt: bromide) [Compound 10c] is 128 to 129 °C.

Compound `CC(C)(C)c1ccc(-c2nnc(SCCCCCC[N+](C)(CCO)CCO)o2)cc1` (as salt: bromide) [Compound 7a] came in with a melting point of 78 to 80 °C.

The compound `C[N+](CCO)(CCO)CCCCCCCCSc1nc2ccccc2s1` (as salt: bromide) [Compound 13b] showed a melting point of 87 to 89 °C. With `C[N+](CCO)(CCO)CCCCCCCCCCSc1nc2ccccc2s1` (as salt: bromide) [Compound 13c], the melting point lay within 111 to 112 °C.

`C[N+](CCO)(CCO)CCCCCCCCSc1nc2ccccc2o1` (as salt: bromide) [Compound 10b] yielded a melting point of 125 to 127 °C.

Compound `C[N+](CCO)(CCO)CCCCCCSc1nnc(-c2ccc(C(F)(F)F)cc2)o1` (as salt: bromide) [Compound 6a] registered a melting point of 93 to 94 °C. `CC(C)(C)c1ccc(-c2nnc(SCCCCCCCCCC[N+](C)(CCO)CCO)o2)cc1` (as salt: bromide) [Compound 7c]: the melting point fell in the range of 78 to 80 °C. Still for that read-out and setting: the figure for `C[N+](CCO)(CCO)CCCCCCCCCCCCSc1nc2ccccc2s1` (as salt: bromide) [Compound 13d] is 106 to 107 °C; for `C[N+](CCO)(CCO)CCCCCCCCSc1nnc(-c2ccc(C(F)(F)F)cc2)o1` (as salt: bromide) [Compound 6b] it is 78 to 80 °C. The same measure, in the same setting: the figure for `Cc1nnc(SCCCCCCCCCC[N+](C)(CCO)CCO)s1` (as salt: bromide) [Compound 16c] is 77 to 78 °C; for `C[N+](CCO)(CCO)CCCCCCCCCCSc1nnc(-c2ccc(F)cc2)o1` (as salt: bromide) [Compound 5c] it is 102 to 103 °C; for `CC(C)(C)c1ccc(-c2nnc(SCCCCCCCC[N+](C)(CCO)CCO)o2)cc1` (as salt: bromide) [Compound 7b] it is 71 to 72 °C.

As for `C[N+](CCO)(CCO)CCCCCCCCCCCCSc1nc2ccccc2o1` (as salt: bromide) [Compound 10d], the melting point lay in the range of 125 to 127 °C. On the same count and under the same terms, the figure for `Cc1nnc(SCCCCCCCC[N+](C)(CCO)CCO)s1` (as salt: bromide) [Compound 16b] is 74 to 75 °C; for `Cc1nnc(SCCCCCC[N+](C)(CCO)CCO)s1` (as salt: bromide) [Compound 16a] it is 56 to 57 °C.

`C[N+](CCO)(CCO)CCCCCCCCCCCCSc1nnc(-c2ccc(F)cc2)o1` (as salt: bromide) [Compound 5d] displayed a melting point of 98 to 100 °C. `C[N+](CCO)(CCO)CCCCCCCCSc1nnc(-c2ccc(F)cc2)o1` (as salt: bromide) [Compound 5b] gave a melting point of 81 to 82 °C. Still for that read-out and setting: the value for `C[N+](CCO)(CCO)CCCCCCSc1nnc(-c2ccc(F)cc2)o1` (as salt: bromide) [Compound 5a] was 74 to 76 °C.

A further data set deals with normal cell lines. More on the design: method as in PMID 25215430. To be noted: cell line not given; cited from earlier work.
On to `CCCCCCCCCCCC[N+](C)(CCO)CCO` [Compound C12QAS, N-methyl-N-dodecyl-N,N-bis(2-hydroxyethyl) ammonium bromides], for which the “Cytotoxicity IC50” value is listed as “ca. 4.00 μg/mL”.
